Measurements: ChEMBL document CHEMBL3507680, “University of Dundee, Gates Library screen for HepG2 cell viability”

Experiment: Human HepG2 cell viability assay in 384 well format
Format: toxicity, cell-based
Set-up: dose 125 nL, time 70.5 hour; concentration not given beside the values
Conditions: HepG2 cells, read-out: Inhibition

Row | SMILES | cytotoxicity at 70.5 h [%]
1 | O=C(Nc1cccnc1)[C@H]1C[C@@H]2CN(C(=O)NC3CCCC3)C[C@H]1O2 | -1.2
2 | CC(C)NC(=O)N1CCc2nc(C(=O)NCc3ccccc3)sc2CC1 | -15.4
3 | CS(=O)(=O)N[C@@H]1CCO[C@]2(CCN(C(=O)C3=CCCC3)C2)C1 | -10
4 | Cn1cc(C2COC3(CCN(C(=O)Cn4cccn4)CC3)C2)cn1 (stereo not drawn) | -2.75
5 | CS(=O)(=O)NCc1nnc2n1CCN(Cc1cccs1)C2 | -3.11
6 | CCS(=O)(=O)N1CC[C@H](OC)[C@@H]1Cc1ccncc1 | 3.22
7 | Cn1ccnc1CN1CC[C@@H](NS(C)(=O)=O)[C@@H]1Cc1cccnc1 | -2.76
8 | Cc1noc([C@H]2C[C@@H]3CCN(C(=O)C4CCOCC4)C[C@H]3O2)n1 | -1.73
9 | Cc1ccc(N2CCC3(CC2)CC(OCC(=O)N(C)C)CO3)nn1 (stereo not drawn) | -8.76
10 | Cc1nc(CN2C(=O)CC[C@H]3[C@@H]2CCN3C(=O)c2ccsc2)cs1 | -11.6
11 | Cn1cc2c(n1)C(COCC1CC1)CN(Cc1ccccn1)C2 (stereo not drawn) | 15.6
12 | Cn1ncc2c1C(COCC1CC1)CN(Cc1ccoc1)C2 (stereo not drawn) | -6.88
13 | Cc1cnc(N2CCn3cc(CNC(=O)CC4CC4)nc3C2)nc1 | 25.9
14 | CN(C)C(=O)NC1COC2(CCN(C(=O)Nc3ccccc3)CC2)C1 (stereo not drawn) | 7.49
15 | Cc1cc(C(=O)N(C)Cc2ccccc2OCC(C)C)cc(=O)[nH]1 | 15.6
16 | CC(Cn1cccn1)n1cnc2ccc(F)cc2c1=O (stereo not drawn) | -7.83
17 | COc1cccc(-c2cc(CN)ccc2F)c1F | -8.44
18 | CSCCC(=O)N1CCC(CCC(=O)NCC2CCCO2)CC1 (stereo not drawn) | -13.2
19 | CC(C)CN1CCCn2nc(CNC(=O)CN3CCOC3=O)cc2C1 | -7.41
20 | COCCN(Cc1cnn(C)c1)C(=O)C1CCN(C2CCCCC2)CC1 | -10.8
21 | CCN(Cc1cc(F)c(OC)c(Cl)c1)Cc1nc(COC)no1 | 12.1
22 | CN(Cc1ccoc1)C(=O)CN1C(=O)OC(C)(C)C1=O | -8.72

Row | SMILES | cytotoxicity at 70.5 h [%]
23 | CCS(=O)(=O)NCc1cccnc1N1CCCC(O)C1 (stereo not drawn) | -26.9
24 | CN1CC2(CCCN(Cc3ccc(Oc4ccccc4)cc3)C2)OC1=O (stereo not drawn) | 16.8
25 | O=c1[nH]c2ccccc2cc1CN(Cc1ccccn1)CC1CCCO1 (stereo not drawn) | -4.2
26 | CN1C(=O)CC(C(=O)O)C12CCN(c1ccc3cccc(Cl)c3n1)CC2 (stereo not drawn) | -4.5
27 | Cn1nc(CO)c2c1CCN(c1ncnc3c1CCNC3)C2 | -6.14
28 | CN(Cc1cc(-c2cccnc2)no1)C(=O)C1CCCN1S(C)(=O)=O (stereo not drawn) | -8.25
29 | CCn1ccnc1CN(C)c1cc(N(C)C)ncn1 | 0.0154
30 | O=C(N[C@@H]1c2ccccc2C[C@@H]1O)C1CCN(Cc2ccco2)CC1 | -0.979
31 | Fc1ccc(C(CNc2ccncn2)N2CCCC2)cc1 (stereo not drawn) | 12.7
32 | Cc1ccccc1NC(=O)CNC(C)COc1ccccc1 (stereo not drawn) | -9.44
33 | CCOC(=O)CCNC(=O)N1CCCC(CNC(=O)c2ccco2)C1 (stereo not drawn) | 3.18
34 | Cc1cnc(N2CCCC(c3ccccc3)C2)nc1-c1ccnn1C (stereo not drawn) | -8.04
35 | CC1(c2ccccc2)CCCN(Cc2cncn2C2CC2)C1 (stereo not drawn) | -8.21
36 | CSC(C)CCN(Cc1ccccn1)Cc1sccc1C (stereo not drawn) | -4.96
37 | CSc1ccccc1CN1C[C@H]2C(=O)N(CC3CC3)C[C@@]2(C(=O)O)C1 | -0.998
38 | CCCN(Cc1nc(-c2ccc(F)c(OC)c2)oc1C)CC1CCCO1 (stereo not drawn) | -5.99
39 | CCNc1ncc(CN2C[C@H](C3CC3)[C@@H](N)C2)cn1 | -1.95
40 | O=C(c1ccncc1Cl)N1CCN(Cc2ccco2)C(CCO)C1 (stereo not drawn) | 16.2
41 | O=C(O)C1(Cc2ccccc2Cl)CCN(c2ncccn2)CC1 | -10.5
42 | Cc1cc(N2CCCC(O)CC2)n2nc(C)c(C)c2n1 (stereo not drawn) | 1.18
43 | COc1ccc(-c2cccc(-c3ccn(CCCN(C)C)n3)c2)nn1 | -13.7
44 | COCCN(C)C[C@@H]1CN(C(=O)c2cccc(C#N)c2)C[C@@H]1CO | 12.6

Row | SMILES | cytotoxicity at 70.5 h [%]
45 | Cc1nc(N)ncc1C(=O)N1CCCC(CCc2ccc(F)cc2)C1 (stereo not drawn) | -18.8
46 | CCc1ccc(CN(C)Cc2nc(-c3cnccn3)no2)nc1 | -13.4
47 | Cc1n[nH]c(C)c1CCCNCc1cn(CCC(N)=O)c2ccccc12 | -3.31
48 | Cc1nnc(SCCCNC(=O)Cc2ccc3c(c2)OCO3)s1 | 11.5
49 | c1ccc2c(c1)CC(N1CCCC(NCc3ccc4nonc4c3)C1)C2 (stereo not drawn) | -17.7
50 | CC1(C)[C@H]2CC=C(CN3CCCn4nc(C(=O)O)cc4C3)[C@@H]1C2 | -19.9
51 | O=C(CCC(=O)N1CCNC(=O)C1c1cccc(F)c1)NC1CCCC1 (stereo not drawn) | -6.2
52 | CCCn1ncc(CN(CCN(C)C)Cc2ccsc2)c1C | 31.8
53 | CC(=O)N[C@@H]1CN(c2nc(CO)cs2)C[C@H]1c1ccc(C)o1 | -12.8
54 | CC(C)=CCN1C[C@H]2CC[C@@H]1CN(C(=O)CSc1ccncc1)C2 | -0.143
55 | c1ccc(C2CCN(c3ncnc4c3CCNC4)CC2)cc1 | -4.79
56 | Cc1cc(C(F)(F)F)cc(N2CCN(Cc3ccccc3)CC(O)C2)n1 (stereo not drawn) | 3.5
57 | CC(C)(C)c1oc(C(N)=O)cc1CN1CCCCC1CN1CCOCC1 (stereo not drawn) | 39.9
58 | COc1ccccc1[C@@H]1CN(Cc2c(C)noc2C)C[C@H]1C(=O)O | -8.62
59 | COCCC1(C(=O)O)CCCN(C(=O)c2cc(Cl)ccc2F)C1 (stereo not drawn) | -5.3
60 | CC(C)S(=O)(=O)N1CCCC(c2nnc(Cn3ccnc3)n2C)C1 (stereo not drawn) | -7.74
61 | CN(C)CC1(O)CCCN(C(=O)CCn2cc(Cl)cn2)C1 (stereo not drawn) | 26.8
62 | CC(c1cccs1)N(C)Cc1cnc(-c2ccccn2)nc1 (stereo not drawn) | 3.52
63 | CCCc1nc(CN(CC)C(=O)c2ccc(S(C)(=O)=O)cc2)no1 | -8.4
64 | Cc1nc(CCN(C)C(=O)CN2C(=O)OC[C@@H]2c2ccccc2)no1 | -4.02
65 | Fc1ccc(-n2cccn2)c(CN2CCCCC2CCn2ccnc2)c1 (stereo not drawn) | 1.83
66 | COc1nccnc1N1C[C@@H]2CC[C@H](C1)N(CC=C(C)C)C2=O | -20.8

Row | SMILES | cytotoxicity at 70.5 h [%]
67 | CCC(C(=O)NC1(C(N)=O)CCCC1)n1cccn1 (stereo not drawn) | -13.8
68 | CCN(Cc1cnc(-c2ccccn2)nc1)C1CCS(=O)(=O)C1 (stereo not drawn) | 5
69 | COCCNCC1(O)CCCN(Cc2ccc(F)c(F)c2)C1=O (stereo not drawn) | -2.23
70 | Cn1ccnc1-c1ccc(NCC2COc3ccccc3O2)nn1 (stereo not drawn) | 1.13
71 | COC[C@]1(O)CCN(C2CCN(c3ccc(Cl)cc3)CC2)CC1(C)C | 22.5
72 | CCN1CC(c2ccccc2)CC2(CCN(Cc3ncc[nH]3)CC2)C1 (stereo not drawn) | -9.77
73 | CC(=O)N1CCN(Cc2c(C)ccc3ccccc23)CC(O)C1 (stereo not drawn) | -6.49
74 | CCOc1ccccc1C(C(=O)O)N(C)Cc1nnc(C)o1 (stereo not drawn) | -2.69
75 | Cc1cnc(N2CCCC(c3ccccc3)C2)nc1-c1ncnn1C (stereo not drawn) | -9.97
76 | O=C(CCN1CCOC(C(F)(F)F)C1)NCc1ccc(Cl)cc1 (stereo not drawn) | -0.312
77 | COc1nc(C)c(C(=O)N2CCC(C(O)Cc3ccccc3)CC2)s1 (stereo not drawn) | -11.5
78 | N#Cc1ccccc1C(=O)N1C[C@@H](CN2CCCCC2)[C@@H](CO)C1 | -5.21
79 | CC(=O)NCCNC(=O)c1cnc2c(c1)nc(-c1ccccc1Cl)n2C | -6
80 | Cc1c[nH]c(CN2CCN(C)C3(CCC(=O)N(CC4CC4)CC3)C2)n1 (stereo not drawn) | 19.9
81 | Cc1ccc(OC2(C(=O)NC(C)Cc3ccncc3)CCNCC2)cc1 (stereo not drawn) | -6.8
82 | CN(CCc1ccccn1)C(=O)CCC1CCCN(S(C)(=O)=O)C1 (stereo not drawn) | 3.47
83 | Cc1nc(O)cc(C2CCN(C(=O)c3[nH]nc4c3CC(C)CC4)CC2)n1 (stereo not drawn) | -11
84 | COC(=O)CNc1ccc(-c2nc(Cc3ccc(OC)cc3)no2)cn1 | -10.8
85 | c1cnc(NCc2cncc3c2CCN(Cc2cccs2)C3)nc1 | -10.8
86 | COCC(=O)N1CC[C@@H]2O[C@H](COCc3ccncc3)CC[C@@H]21 | -15.9
87 | O=C([C@H]1C[C@H]2OCC[C@H]2N(CCc2ccccc2)C1)N1CCCCO1 | -6.32
88 | CCc1ccc(CN2CCC3(CC2)CC(N2CCN(C)CC2)CO3)cc1 (stereo not drawn) | 7.28

Row | SMILES | cytotoxicity at 70.5 h [%]
89 | Cn1cc(C[C@H]2[C@H](O)CCN2CC2CC2)cn1 | 6.74
90 | CC(C)Nc1ncnc2c1CCN(C(=O)c1ccncc1F)CC2 | 5.41
91 | CN(C)C(=O)N1CCC2(CCCN(Cc3cnn(C)c3)C2)C1 (stereo not drawn) | 6.69
92 | O=C(c1ccc[nH]1)N1CCc2c(COCC3CC3)cncc2C1 | -4.79
93 | Cc1nc(CN2C[C@@H]3CN(C(=O)C4CC4)C[C@@H]3C2=O)cs1 | 27.3
94 | Cc1nc(CN2C[C@@H]3CN(C(=O)c4cccn4C)C[C@@H]3C2=O)cs1 | -3.56
95 | O=C1CO[C@@H]2CN(CC3CCOCC3)C[C@H]2N1CC1CC1 | -2.81
96 | CN(C)C(=O)N1CCN(Cc2cnn(C)c2)CC2(CNC(=O)C2)C1 (stereo not drawn) | -7.42
97 | Cc1nc(CN2CCc3ncnc(-c4ccc(F)cc4)c3CC2)cs1 | -4.74
98 | Cc1nc(CN2C[C@@H]3CN(C(=O)c4ccnnc4)C[C@@H]3C2=O)cs1 | -3.08
99 | O=C1CC(c2ccncc2)C2(CCN(C(=O)c3ccc[nH]3)CC2)N1 (stereo not drawn) | 23.7
100 | CN(C)CCNC(=O)c1cc(-c2cnc(N3CCCC3)nc2)cn1C | 21.5
101 | Cc1cccc(C(=O)N2C[C@@H]3CCN(c4cccnc4)C[C@@H]3C2)c1 | 31.2
102 | Cc1cccc(N2CC[C@@H]3CN(C(=O)c4ccco4)CCO[C@@H]3C2)n1 | -13.8
103 | CNC(=O)[C@H]1CO[C@H]2CCN(Cc3ccc4ccccc4n3)C[C@H]2C1 | -0.28
104 | O=C(c1ccc(F)cc1)N1CCN2C[C@H](OCc3ccccn3)C[C@H]2C1 | -6.75
105 | Fc1ccc(CNCC2OCCc3cn(CC4CC4)nc32)cc1 (stereo not drawn) | 5.14
106 | CCN1C[C@H]2[C@@H](C1)N(S(=O)(=O)c1cccnc1)CC[C@H]2OC | 45.6
107 | CNC(=O)C1Cn2ccnc2C2(CCN(Cc3cccnc3)CC2)O1 (stereo not drawn) | 2.48
108 | CN1CCN(Cc2cnc3n2CCN(Cc2cccs2)C3)CC1 | 3.18
